Assay [1] deals with T1, Human recombinant MMP-13 (Homo sapiens, UniProt P45452).
T1 construct: made in house; host or cells: baculovirus / insect cells
As to the kind of experiment: In vitro MMP inhibition analysis (fluorogenic peptide substrate cleavage), Ki. Format: biochemical. On the procedure: (§1) Several compounds and salts were analyzed in an in vitro assay to determine their ability to inhibit the MMP cleavage of peptide substrates. Inhibition constant (Ki) were calculated from the assayed compound-MMP interactions.
(§2) Human recombinant MMP-1, MMP-2, MMP-9, MMP-13, and MMP-14 were used in this assay. All enzymes were prepared in Assignee's laboratories following usual laboratory procedures. Protocols for the preparation and use of these enzymes are available in the scientific literature. See, e.g., Enzyme Nomenclature (Academic Press, San Diego, Calif., 1992) (and the citations therein). See also, Frije et al., J. Biol. Chem., 26(24), 16766-73 (1994).
The MMP-13 was obtained as a proenzyme from a full-length cDNA clone using baculovirus, as described by V. A. Luckow, “Insect Cell Expression Technology,” Protein Engineering: Principles and Practice, pp. 183-218 (edited by J. L. Cleland et al., Wiley-Liss, Inc., 1996). The expressed proenzyme was first purified over a heparin agarose column, and then over a chelating zinc chloride column. The proenzyme was then activated by APMA for use in the assay. Further details on baculovirus expression systems may be found in, for example, Luckow et al., J. Virol., 67, 4566-79 (1993). See also, O'Reilly et al, Baculovirus Expression Vectors: A Laboratory Manual (W.H. Freeman and Co., New York, N.Y., 1992). See also, King et al., The Baculovirus Expression System: A Laboratory Guide (Chapman & Hall, London, England, 1992).
(§3) All MMPs were activated using 4-aminophenylmercuric acetate (“APMA”, Sigma Chemical, St. Louis, Mo.) or trypsin. MMP-9 also was activated using human recombinant MMP-3 (purified in Assignee's laboratory following standard cloning and purification techniques).
(§4) The following fluorogenic, methoxycoumarin-containing polypeptide substrate (I) was used in the MMP inhibition assays: MCA-ArgProLeuGlyLeuDpaAlaArgGluArgNH2 (I) “MCA” is 7-methoxycoumarin-4-yl acetyl. Substrate (I) was prepared Assignee's laboratory. In the absence of MMP inhibitory activity, the substrate is cleaved at the Gly-Leu peptide bond. This cleavage separates the highly fluorogenic peptide from the 2,4-dinitrophenyl quencher, thus resulting in increase of fluorescent intensity.
(§5) The stock solutions of the assayed compounds and salts were prepared in […] (DMSO). These stock solutions were diluted in Buffer A (100 mM Tris-HCl, 100 mM NaCl, 10 mM CaCl2, 0.05% polyoxyethylene 23 lauryl ether, pH 7.5) to obtain solutions with different compound concentrations, i.e., assay solutions with different concentrations of the assayed […] compound. The experiment controls contained the same amount of Buffer A/DMSO as the assayed sample, but contained none of the tested compound or salt.
The assays from which the Ki determinations were made were performed as follows. The assayed compound samples were incubated in separate wells of untreated white polystyrene plates (Nunc Nalgene International, Rochester, N.Y.), and analyzed on a Tecan SpectraFlour Plus plate reader. The excitation wavelength was 330 nm, and the emission wavelength—420 nm. All samples (assayed compounds and controls) were incubated in separate plate wells at room temperature for 1 hr in the presence of 4 μM of MMP substrate (I). In the absence of MMP inhibitory activity, substrate (I) was cleaved at the Gly-Leu bond resulting in an increase of relative fluorescence. Inhibition was observed as a reduced rate of this increase in relative fluorescence. […] This protocol is a modification of method by Knight et al., FEBS Lett., 296(3), 263-266 (1992). Apparent inhibitory constants were determined by non-linear regression of reaction velocity as a function of inhibitor and enzyme concentration using Morrison's equation, as described by Kuzmic, Anal. Biochem. 286, 45-50 (2000). […]

Assay [2] has as its target T2, Human recombinant MMP-9 (Homo sapiens, UniProt P14780).
T2 construct: made in house; host or cells: MMP-9-transfected HT1080 cells (spent media)
The assay is described as above. Format: biochemical. On the procedure: as §1, §2
The MMP-9 proenzyme was purified by gelatin Sepharose chromatography from spent media of MMP-9-transfected HT1080 cells provided by Dr. Howard Welgus of Washington University (St. Louis, Mo.).
as §3, §4, §5
The assays from which the Ki determinations were made were performed as follows. The assayed compound samples were incubated in separate wells of untreated white polystyrene plates (Nunc Nalgene International, Rochester, N.Y.), and analyzed on a Tecan SpectraFlour Plus plate reader. The excitation wavelength was 330 nm, and the emission wavelength—420 nm. All samples (assayed compounds and controls) were incubated in separate plate wells at room temperature for 1 hr in the presence of 4 μM of MMP substrate (I). In the absence of MMP inhibitory activity, substrate (I) was cleaved at the Gly-Leu bond resulting in an increase of relative fluorescence. Inhibition was observed as a reduced rate of this increase in relative fluorescence. […] This protocol is a modification of method by Knight et al., FEBS Lett., 296(3), 263-266 (1992). Apparent inhibitory constants were determined by non-linear regression of reaction velocity as a function of inhibitor and enzyme concentration using Morrison's equation, as described by Kuzmic, Anal. Biochem. 286, 45-50 (2000). Modifications were made in the non-linear regression method to allow a common control reaction rate and effective enzyme concentration to be shared between all dose-response relationships on a given assay plate. Since the substrate concentration was chosen to be at or below the Km, the apparent Ki's from this analysis were reported as Ki's without correction for the influence of substrate.
The above protocols were used to determine Ki constants for the compounds in Examples 2-35 above. All Ki values in Table 1 are given in nM units.

The structures appear in SMILES notation. pKi: −log10 of the molar value.

T2 sequence (P14780 107-707 limits assumed): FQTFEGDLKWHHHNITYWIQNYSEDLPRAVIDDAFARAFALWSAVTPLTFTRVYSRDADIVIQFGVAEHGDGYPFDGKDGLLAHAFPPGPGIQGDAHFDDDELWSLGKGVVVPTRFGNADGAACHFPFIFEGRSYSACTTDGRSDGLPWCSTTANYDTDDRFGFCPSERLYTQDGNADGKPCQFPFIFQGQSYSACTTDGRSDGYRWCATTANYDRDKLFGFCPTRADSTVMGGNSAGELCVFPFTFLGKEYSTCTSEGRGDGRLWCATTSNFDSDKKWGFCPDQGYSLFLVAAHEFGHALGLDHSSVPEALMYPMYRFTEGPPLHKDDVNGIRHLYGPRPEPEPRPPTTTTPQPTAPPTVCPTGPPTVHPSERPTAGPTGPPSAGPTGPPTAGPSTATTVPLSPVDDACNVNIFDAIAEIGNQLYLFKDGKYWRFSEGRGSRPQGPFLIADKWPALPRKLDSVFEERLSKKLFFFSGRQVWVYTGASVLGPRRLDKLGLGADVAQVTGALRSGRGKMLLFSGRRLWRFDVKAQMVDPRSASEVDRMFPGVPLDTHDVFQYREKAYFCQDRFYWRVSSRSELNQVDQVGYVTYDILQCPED

A word on the pKi: it is −log10 of the Ki, conventionally taken in molar units. In the case of `COCC#Cc1cnc(-c2ccc(S(=O)(=O)C3(C(=O)NO)CCOCC3)cc2)cn1` [Example 164], the pKi in assay [1] (Table 2) was 10.05; in assay [2] (Table 2), 9.24.

With `CC(F)(F)CCc1cnc(-c2ccc(S(=O)(=O)C3(C(=O)NO)CCN(C4CC4)CC3)cc2)cn1` [Example 66], the figures for the pKi in assay [1] (Table 1) and in assay [2] (Table 1) were 9.64 and 9.51, respectively.

`CCCCOc1ccc(-c2ccc(S(=O)(=O)C3(C(=O)NO)CCN(CCOC)CC3)cc2)cc1` [Example 119]: the pKi in assay [1] (Table 2) is 10.74; in assay [2] (Table 2), 9.82.

`O=C(NO)C1(S(=O)(=O)c2ccc(-c3ccc(-n4ccnc4)cc3)cc2)CCOCC1` [Example 127]: the pKi in assay [1] (Table 2) was 10.52; in assay [2] (Table 2), 8.72.

Turning to `O=C(NO)C1(S(=O)(=O)c2ccc(-c3ccc(CCC(F)(F)C(F)(F)F)cc3)cc2)CCN(C2CC2)CC1` [Example 45], the negative-log Ki (pKi) in assay [1] (Table 1) is 9.34; in assay [2] (Table 1), 8.94.

For the molecule `O=C(NO)C1(S(=O)(=O)c2ccc(-c3ccc(CCC(F)(F)F)cc3)cc2)CCOCC1` [Example 161], the pKi is 10.15 in assay [1] (Table 2) and 9.68 in assay [2] (Table 2).

Take `CCc1csc(Nc2ccc(-c3ccc(S(=O)(=O)C4(C(=O)NO)CCOCC4)cc3)cc2)n1` [Example 124]: the pKi is 8.48 in assay [1] (Table 2) and 6.72 in assay [2] (Table 2).

Take `O=C(NO)C1(S(=O)(=O)c2ccc(-c3cnc(-c4cccs4)cn3)cc2)CCOCC1` [Example 160]: the negative logarithm of the Ki (pKi) in assay [1] (Table 2) is 9.15; in assay [2] (Table 2), 8.50.

As for `CCCCc1ccc(-c2ccc(S(=O)(=O)C3(C(=O)NO)CCN(CC)CC3)cc2)cn1` [Example 139], the negative logarithm of the Ki (pKi) in assay [1] (Table 2) was 8.28; in assay [2] (Table 2), 8.21.

Consider `CCN1CCC(C(=O)NO)(S(=O)(=O)c2ccc(-c3ccc(OCCCCO)cc3)cc2)CC1` [Example 118], for which the negative-log Ki (pKi) in assay [1] (Table 2) was 10.92; in assay [2] (Table 2) it was 9.06.

On to `O=C(NO)C1(S(=O)(=O)c2ccc(-c3ccc(CCC4CCCCC4)cn3)cc2)CCOCC1` [Example 129], for which the pKi in assay [1] (Table 2) is 9.42; in assay [2] (Table 2), 8.07.

As for `O=C(NO)C1(S(=O)(=O)c2ccc(-c3ncc(CCC(F)(F)C(F)(F)F)cn3)cc2)CCOCC1` [Example 137], the pKi in assay [1] (Table 2) was 9.77; in assay [2] (Table 2) it was 8.94.

With `O=C(NO)C1(S(=O)(=O)c2ccc(-c3cscc3-c3ccc(F)cc3)cc2)CCOCC1` [Example 132], the negative-log Ki (pKi) in assay [1] (Table 2) is 7.15; in assay [2] (Table 2), 6.53.

In the case of `O=C(NO)C1(S(=O)(=O)c2ccc(-c3ccc(OC(F)(F)C(F)F)cc3)cc2)CCOCC1` [Example 68], the negative-log Ki (pKi) in assay [1] (Table 1) was 10.29; in assay [2] (Table 1), 9.85.

Regarding `CC(C)(C)CCNc1cnc(-c2ccc(S(=O)(=O)C3(C(=O)NO)CCOCC3)cc2)cn1` [Example 130], the figures for the negative-log Ki (pKi) in assay [1] (Table 2) and in assay [2] (Table 2) were 8.90 and 7.89, respectively.

In the case of `CC(F)(F)CCc1ccc(-c2ccc(S(=O)(=O)C3(C(=O)NO)CCN(C4CC4)CC3)cc2)cc1` [Example 59], the values for the negative-log Ki (pKi) in assay [1] (Table 1) and in assay [2] (Table 1) were 10.30 and 9.80, respectively.

Consider `O=C(NO)C1(S(=O)(=O)c2ccc(-c3ccc(OC(F)(F)C(F)F)cc3)cc2)CCN(CCl)CC1` [Example 38], for which the pKi in assay [1] (Table 1) is 10.70; in assay [2] (Table 1), 9.90.

Consider `O=CN1CCC(C(=O)NO)(S(=O)(=O)c2ccc(-c3ccc(CCCC(F)(F)F)cn3)cc2)CC1` [Example 159], for which the pKi is 10.70 in assay [1] (Table 2) and 9.42 in assay [2] (Table 2).

Take `CCN1CCC(C(=O)NO)(S(=O)(=O)c2ccc(-c3ccc(Oc4ccccc4)cc3)cc2)CC1` [Example 135]: the negative logarithm of the Ki (pKi) in assay [1] (Table 2) was 9.13; in assay [2] (Table 2), 8.00.

Regarding `COCCN1CCC(C(=O)NO)(S(=O)(=O)c2ccc(-c3ccc(CCC(F)(F)C(F)(F)F)cc3)cc2)CC1` [Example 46], the figures for the negative-log Ki (pKi) in assay [1] (Table 1) and in assay [2] (Table 1) were 9.96 and 9.42, respectively.

As to `O=C(NO)C1(S(=O)(=O)c2ccc(-c3ccc(OCCCC(F)(F)F)cn3)cc2)CCOCC1` [Example 144], the negative logarithm of the Ki (pKi) was 11.15 in assay [1] (Table 2) and 8.95 in assay [2] (Table 2).

On to `O=C(NO)C1(S(=O)(=O)c2ccc(-c3cnc(CCC(F)(F)C(F)(F)F)cn3)cc2)CCOCC1` [Example 55], for which the pKi in assay [1] (Table 1) is 9.65; in assay [2] (Table 1), 9.46.

Turning to `O=C(NO)C1(S(=O)(=O)c2ccc(-c3ccc(CCCC(F)(F)F)cc3)cc2)CCOCC1` [Example 42], the negative-log Ki (pKi) in assay [1] (Table 1) is 10.14; in assay [2] (Table 1), 9.19.

Take `O=C(NO)C1(S(=O)(=O)c2ccc(-c3ccc(CCCC(F)(F)F)cn3)cc2)CCN(C2CC2)CC1` [Example 51]: the pKi in assay [1] (Table 1) was 10.30; in assay [2] (Table 1), 9.66.

On to `COCCN1CCC(C(=O)NO)(S(=O)(=O)c2ccc(-c3ccc(CCCC(F)(F)F)cn3)cc2)CC1` [Example 54], for which the pKi was 9.52 in assay [1] (Table 1) and 9.60 in assay [2] (Table 1).

`COCCN1CCC(C(=O)NO)(S(=O)(=O)c2ccc(-c3ccc(-c4ccccc4)cc3)cc2)CC1` [Example 152]: the results for the pKi in assay [1] (Table 2) and in assay [2] (Table 2) were 10.30 and 10.05, respectively.

For the molecule `O=C(NO)C1(S(=O)(=O)c2ccc(-c3ccc(CCCC(F)(F)F)cc3)cc2)CCN(C2CC2)CC1` [Example 44], the negative logarithm of the Ki (pKi) in assay [1] (Table 1) was 9.89; in assay [2] (Table 1) it was 9.17.

With `O=C(NO)C1(S(=O)(=O)c2ccc(-c3noc(-c4ccc(F)cc4)n3)cc2)CCOCC1` [Example 134], the pKi in assay [1] (Table 2) was 8.75; in assay [2] (Table 2) it was 8.28.

Regarding `CCN1CCC(C(=O)NO)(S(=O)(=O)c2ccc(-c3noc(-c4ccc(C(F)(F)F)cc4)n3)cc2)CC1` [Example 149], the negative-log Ki (pKi) in assay [1] (Table 2) is 9.35; in assay [2] (Table 2), 8.29.

`CCCCOc1cnc(-c2ccc(S(=O)(=O)C3(C(=O)NO)CCOCC3)cc2)cn1` [Example 73]: the pKi in assay [1] (Table 2) was 10.55; in assay [2] (Table 2) it was 9.95.

For the molecule `O=C(NO)C1(S(=O)(=O)c2ccc(-c3cnc(NCC4CC4)cn3)cc2)CCOCC1` [Example 128], the negative logarithm of the Ki (pKi) in assay [1] (Table 2) is 8.47; in assay [2] (Table 2) it was 8.36.

As to `O=C(NO)C1(S(=O)(=O)c2ccc(-c3ccc(OCCCC(F)(F)F)cc3)cc2)CCOCC1` [Example 74], the pKi in assay [1] (Table 2) was 9.99; in assay [2] (Table 2) it was 8.47.

For `CCN1CCC(C(=O)NO)(S(=O)(=O)c2ccc(-c3noc(-c4ccncc4)n3)cc2)CC1` [Example 148], the pKi in assay [1] (Table 2) is 8.24; in assay [2] (Table 2) it was 7.41.

For `O=C(NO)C1(S(=O)(=O)c2ccc(-c3ccc(CCC(F)(F)C(F)(F)F)cn3)cc2)CCN(C2CC2)CC1` [Example 50], the pKi in assay [1] (Table 1) was 9.92; in assay [2] (Table 1), 9.66.

For the origin of these results see patent US20060074243A1, “Hydroxamic acid and amide compounds and their use as protease inhibitors” (Pharmacia Corporation, priority 2002, published 2006).
